Source: US20230026163A1, “ANTICANCER COMPOUND AND MEDICAL USE THEREOF” (ASCENTAWITS PHARMACEUTICALS, LTD., priority 2019, published 2023)
Like-named read-outs stand apart in the source and are kept apart here.

Columns and labels:
[1] = system: H460 cell line; test: Hypoxia-dependent cytotoxicity experiment (2 hours exposure, air or N2, CTG); type: cell-based; details: Homo sapiens, then 3 days
Method: To determine the effect of the compounds of the present disclosure on cancer cell proliferation, these compounds were tested for cancer cell anti-proliferative activity in a porous CTG-based assay. Cell growth was compared in the present (treatment groups) and the absence of the test compound. 10,000 cells/well/495 μL of medium was used to test the following cell line, a human tumor cell line of H460 non-small cell lung cancer. The cells were seeded on glass-inserts located in each well of 24-well plates with a density and medium as specified above. 24 hours later, the plates were divided into 2 groups, hypoxia (using N2) group and air group. TH-302 at the concentrations from 100, 10, 0.1 to 0.01 μM, and the test compounds at the concentrations from 10, 1, 0.1, 0.01, 0.001 to 0.0001 were added to each well (500 μL volume) of the treatment groups. The final DMSO concentration in each well was lower than or equal to 1%. The cells in the hypoxia group were incubated for 2 hours in an ELECTROTEK hypoxia workstation. The cells in the air group were incubated for 2 hours in a standard culture incubator. 2 hours later, the test compounds were removed from each well. The cells were washed with 500 μL of medium and incubated in 500 μL of fresh medium for 3 days. 3 days later, 200 μL of medium per well was discarded. 60 μL of CTG was added to the wells, and the plates were placed at room temperature for 15 minutes in the dark. 100 μL of medium from each well of the 24-well plates was transferred to 96-well plates. The chemiluminescence signal values were read with an M5 full-band multi-mode-function microplate reader, and integration=750 ms. The compounds of control 1 and control 2 were used as controls.

[2] = system: H460 cell line; test: Cytotoxicity comparison of TH-302 and compound 01 on H460 at different test times; type: cell-based, human; details: Homo sapiens, NCI-H460, 2 h, H460, exposure for 2 hours, air
Text: The cytotoxicity test results of TH-302 and compound 01 on H460 cell line under different test times in the same laboratory, the same operator, and the same experimental conditions.

[3] = system: H460; test: Cytotoxicity on cell lines of different species: H460; type: cell-based; details: NCI-H460; H460, Human; exposure time: 72 h
[4] = system: AA8; test: Cytotoxicity on cell lines of different species: AA8; type: cell-based
[5] = system: H460 non-small cell lung cancer; details: cited from earlier work
[6] = target: T1, P-glycoprotein (Homo sapiens, UniProt P08183); design: expressed in transfected cells; host or cells: MDCKII-MDR1 (MDCKII canine kidney cells); details: cited from earlier work
[7] = Plasma stability, rat; type: in vitro ADME; details: Rat plasma, 5 μM, 37° C., after 30 minutes
Method: (§1) Frozen plasma was melted immediately in a water bath at 37° C. […] The supernatants were collected into new tubes, respectively. pH values of the plasma were checked and recorded. Note: a, no more 2 times melted plasma was used since the sample was received; b, the plasma in pH 7 to pH 8 was used.
(§2) 1 mM of working solution of the test compounds and the control compound, propantheline, were prepared in DMSO. 1 mM of working solution of the control compound in […] was prepared in acetonitrile. 4 μL of the working solutions were added to 796 μL of pre-incubated plasma respectively to achieve a final concentration of 5 μM. The final concentration of solvent was 0.5%.
(§3) […] The test was performed in duplicate. […] 50 μL of the labeled plasma was added to new tubes containing 300 μL of the quench solution of room temperature, i.e., the sample with a preparation time of 0. The samples were vortexed to mix for 5 minutes. […] 100 μL of the supernatant was transferred to new plates.

[8] = Plasma stability, dog; type: in vitro ADME; details: Dog plasma, 5 μM, 37° C., after 30 minutes
Method: as §1, §2, §3

[9] = target: T1, P-glycoprotein; test: in vitro; details: MDCK-MDR1
Method: MDCKII-MDR1 cells were incubated in cell culture flasks. The incubator was set at 37° C., 5% CO2, and a guaranteed relative humidity of 95%. When the cells reached 70 to 90% confluence, the cells may be seeded to transwells.
50 μL of the cell suspensions were added to the apical chambers of each well of the 96-well transwells at a final seeding density of 5.45×10^5 cells/cm^2.
MDCKII-MDR1 cells may be fully confluent and differentiated after 4 to 8 days of incubation. At this time, the cells may be applied to penetration test. The monolayer membrane resistance was measured with a resistance meter (Millipore), and the resistance per well was recorded. After the test, the transwells were returned to the incubator.
The transwells with MDCKII-MDR1 cells were taken from the incubator. The cell monolayers were rinsed twice with buffer and incubated at 37° C. for 30 minutes.
The rate of the compounds from an apical end to a basolateral end was determined. 75 μL of the buffer containing the test sample was added to each well of the apical chambers (apical end), and 235 μL of the buffer was added to each well of the basolateral chambers (basolateral end).
The rate of the compounds transporting from the basolateral end to the apical end was determined. 75 μL of the buffer was added to the apical chambers (apical end), and 235 μL of the buffer containing the test sample was added to the basolateral chamber (basolateral end).
After the apical chambers and the basolateral chambers were combined respectively, the transwells were incubated at 37° C. for 2 hours.
After incubation, 50 μL of the sample from each well of the apical chambers and the basolateral chambers of the transwells was transferred to new sample tubes respectively. 200 μL of acetonitrile (100 nM of Alprazolam, 200 nM of Labetalol, 200 nM of caffeine, and 2 μM of Ketoprofen) as an internal standard was added to the sample tubes, vortexed for 10 minutes, and centrifuged at 3220 g for 30 minutes. 100 μL of the supernatant was taken and diluted with an equal volume of water for LC-MS/MS analysis. Each sample was incubated in triplicate.
Peak-areas were calculated from ion chromatography results. The apparent permeability coefficient (Papp, unit: cm/s×10-6) of the compounds was calculated by the following formula.
In the formula, VA was the volume of the solution at the acceptor end (Ap→B1 was 0.235 mL, and B1→Ap was 0.075 mL), Area was the membrane area (0.143 cm^2) of 96-well transwell, time was the incubation time (unit: s), [drug]acceptor referred to the drug concentration of the acceptor end after incubation, and [drug]initial,donor referred to the initial concentration of the donor end before incubation.
Efflux ratio was calculated with the following formula.
In the formula, Papp(B_A) was the apparent permeability coefficient from the basolateral end to the apical end, and Papp(A-B) was the apparent permeability coefficient from the apical end to the basolateral end.
The recovery rate was calculated with the following formula.
In the formula, VA was the solution volume of the acceptor end (unit: mL), VD was the solution volume of the donor end (unit: mL), [drug]acceptor referred to the drug concentration of the acceptor end after incubation, and [drug]initial,donor referred to the initial concentration of the donor end before incubation.

[10] = Plasma stability, human; type: in vitro ADME; details: 5 μM, 37° C., after 30 minutes
Method: as §1, §2
Aliquots of 50 μL of labelled plasma were transferred to new tubes and incubated in a water bath at 37° C. at approximately 60 rpm for 2 hours. The test was performed in duplicate. […] 50 μL of the labeled plasma was added to new tubes containing 300 μL of the quench solution of room temperature, i.e., the sample with a preparation time of 0. The samples were vortexed to mix for 5 minutes. […] 100 μL of the supernatant was transferred to new plates.

[11] = Plasma stability, mouse; type: in vitro ADME; details: Mouse plasma, 5 μM, 37° C., after 30 minutes
Method: as §1, §2, §3

[12] = Plasma stability, monkey; type: in vitro ADME; details: 5 μM, 37° C., after 30 minutes
Method: as §1, §2, §3

[13] = system: H460 cell line; details: test results in WO2016210175A1 and CN108024974A, cited from earlier work
[14] = test results in WO2016210175A1 and CN108024974A

T1 sequence (P08183 whole entry): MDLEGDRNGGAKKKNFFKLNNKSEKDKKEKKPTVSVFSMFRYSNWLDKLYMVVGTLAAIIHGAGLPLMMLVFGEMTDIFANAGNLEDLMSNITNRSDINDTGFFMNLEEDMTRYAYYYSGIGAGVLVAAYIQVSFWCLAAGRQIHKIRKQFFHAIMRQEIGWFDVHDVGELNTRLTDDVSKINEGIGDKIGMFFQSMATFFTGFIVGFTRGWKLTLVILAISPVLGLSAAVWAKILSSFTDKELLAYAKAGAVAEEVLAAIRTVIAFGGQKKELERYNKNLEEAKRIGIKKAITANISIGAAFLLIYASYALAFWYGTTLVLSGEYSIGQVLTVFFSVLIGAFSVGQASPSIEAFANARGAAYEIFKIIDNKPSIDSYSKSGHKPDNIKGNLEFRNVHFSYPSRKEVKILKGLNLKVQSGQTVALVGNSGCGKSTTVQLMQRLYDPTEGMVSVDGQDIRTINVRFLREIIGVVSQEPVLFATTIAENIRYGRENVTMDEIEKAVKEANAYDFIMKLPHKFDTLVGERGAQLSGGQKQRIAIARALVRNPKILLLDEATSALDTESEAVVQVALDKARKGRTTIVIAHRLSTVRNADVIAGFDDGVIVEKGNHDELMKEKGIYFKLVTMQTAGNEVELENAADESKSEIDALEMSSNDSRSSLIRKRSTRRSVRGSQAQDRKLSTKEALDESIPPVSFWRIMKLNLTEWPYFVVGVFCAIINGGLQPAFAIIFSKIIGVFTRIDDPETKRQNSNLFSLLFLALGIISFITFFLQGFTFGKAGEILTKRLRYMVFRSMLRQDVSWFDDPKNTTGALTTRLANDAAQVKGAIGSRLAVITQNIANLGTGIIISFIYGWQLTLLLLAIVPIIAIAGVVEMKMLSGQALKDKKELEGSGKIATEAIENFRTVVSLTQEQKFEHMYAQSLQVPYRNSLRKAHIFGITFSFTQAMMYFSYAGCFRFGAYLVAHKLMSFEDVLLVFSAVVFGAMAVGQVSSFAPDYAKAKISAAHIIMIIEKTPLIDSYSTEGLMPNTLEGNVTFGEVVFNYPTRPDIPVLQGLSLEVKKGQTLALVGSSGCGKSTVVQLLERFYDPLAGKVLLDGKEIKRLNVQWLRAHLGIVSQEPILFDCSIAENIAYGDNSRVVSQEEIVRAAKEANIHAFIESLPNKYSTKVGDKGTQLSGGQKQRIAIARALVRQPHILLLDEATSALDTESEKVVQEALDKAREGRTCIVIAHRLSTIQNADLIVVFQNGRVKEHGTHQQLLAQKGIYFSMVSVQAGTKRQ

`Cn1c(COP(=O)(NCCBr)NCCBr)cnc1[N+](=O)[O-]` [Control 1, Evofosfamide, reference compound] gave an IC50 ([1]; NCI-H460, H460, air, read-out: Normoxia: IC50) of 7.98 µM, an IC50 ([1]; NCI-H460, H460, hypoxia (N2), read-out: N2: IC50) of 0.0479 µM and an IC50 ([2]; Time 1) of 23 µM. The IC50 ([2]; Time 2) was 8 µM, the IC50 ([2]; Time 3) was 3.3 µM and the IC50 [3] was 20 µM. The IC50 ([4]; CHO-AA8, AA8, Rat, exposure time: 72 h) was 830 µM, the “Multiple: Rat/Human” value ([4]; IC50 AA8 / IC50 H460) was 41.5 and the IC50 ([5]; value from published literature (Meng et al., Mol Cancer Ther 2012)) was 800 nM. The “P-gp substrate (known / earlier data and literature)” value [6] was “P-gp substrate”.
In the case of `CC[C@H](C)C(=O)O[C@H]1C[C@@H](C)C=C2C=C[C@H](C)[C@H](CC[C@@H]3C[C@@H](O)CC(=O)O3)[C@H]21` [Lovastatin, reference compound], the Remaining percentage [7] is reported as 0.21% and the Remaining percentage [8] is reported as 37.6%.
For `COc1cc2nc(N3CCN(C(=O)c4ccco4)CC3)nc(N)c2cc1OC` [Prazosin, reference compound], the “Papp (A-B)” value [9] was 28.47 10^−6, cm/s, the “Papp (B-A)” value [9] was 14.14 10^−6, cm/s and the Papp A→B at 2 h ([9]; dog) was 14 ×10⁻⁶ cm/s. The Papp B→A at 2 h ([9]; dog) was 28.2 ×10⁻⁶ cm/s and the “P-gp substrate (known / earlier data and literature)” value [6] was “known P-gp substrates”.
With `CC(C)[N+](C)(CCOC(=O)C1c2ccccc2Oc2ccccc21)C(C)C` [Propantheline, reference compound] the Remaining percentage [10] was 0.07%, the Remaining percentage [11] was 5.33% and the Remaining percentage [12] was 48.11%.
For `C[C@@H](OP(=O)(N1CC1)N1CC1)c1ccc([N+](=O)[O-])cc1` [TH2565], the IC50 [5, 14] is given as 100 nM, the IC50 ([13]; read-out: N2: IC50) is given as 18 µM and the IC50 ([13]; read-out: Normoxia: IC50) is given as 0.1 µM.
For `C[C@H](OP(=O)(N1CC1)N1CC1)c1ccc([N+](=O)[O-])cc1` [TH2566], the IC50 [5, 14] is given as 100 nM, the IC50 ([13]; read-out: N2: IC50) is given as 23 µM and the IC50 ([13]; read-out: Normoxia: IC50) is given as 0.1 µM.
